According to patent US12559529B2, “NPY2 receptor agonists” (Boehringer Ingelheim International GmbH, priority 2019, dated 2026):
pKi: −log10 of the molar value. Read-outs that look alike come from different tables or passages of the source.

Legend:
[1] = test system: normal NMRI mice; assay: Effect on acute food intake in normal NMRI mice; assay type: in vivo; conditions: male NMRI mice, 10 nmol/kg subcutaneously once
How it was run: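 Male NMRI mice acclimatized in an HM-2 real-time food intake monitoring system, fasted 6 h before dark phase. Single subcutaneous dose of 10 nmol/kg peptide given 1 h before dark; n=7-8. Food intake expressed as % of vehicle group (50 mM phosphate pH7, 5% Mannitol).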

[2] = target: T1, Human Neuropeptide Y2 Receptor (Homo sapiens, UniProt P49146); assay: Radioligand binding competition assay (RLB); conditions: read-out: Ki
T1 construct: purchased CHEMICON HTS066M
T1 sequence (P49146 1-381): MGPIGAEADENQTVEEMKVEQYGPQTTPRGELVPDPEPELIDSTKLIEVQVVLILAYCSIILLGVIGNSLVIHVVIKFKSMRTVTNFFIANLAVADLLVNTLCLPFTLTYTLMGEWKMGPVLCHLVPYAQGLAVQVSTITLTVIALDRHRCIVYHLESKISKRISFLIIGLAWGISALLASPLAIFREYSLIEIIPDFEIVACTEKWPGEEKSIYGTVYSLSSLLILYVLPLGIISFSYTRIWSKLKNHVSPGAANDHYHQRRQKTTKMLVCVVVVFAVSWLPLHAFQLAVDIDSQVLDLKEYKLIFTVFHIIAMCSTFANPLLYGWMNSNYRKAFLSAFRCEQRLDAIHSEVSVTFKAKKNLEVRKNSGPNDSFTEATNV
How it was run: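 Membranes (0.5 μg/well) and test peptides, serially diluted from 1 mM DMSO stocks, were incubated 2 hours at room temperature in HEPES buffer pH 7.4 with Mg, Ca and ovalbumin.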

[3] = Table 3, human 125I-PYY (1-36) 0.02 nM, Y2 receptor membranes

Structure (SMILES)	Acute Food Intake 24 h [% vehicle] [1]	pKi [2]	pKi [2, 3]
CC(C)CC(=O)N[C@@H](C)C(=O)N1CCC[C@H]1C(=O)N[C@@H](CCC(=O)O)C(=O)N[C@@H](CCCCNC(=O)COCCOCCNC(=O)COCCOCCNC(=O)CC[C@H](NC(=O)CCCCCCCCCCCCCCCCC(=O)O)C(=O)O)C(=O)N1CCC[C@H]1C(=O)N[C@@H](CCC(=O)O)C(=O)N[C@@H](CCC(=O)O)C(=O)N[C@@H](CCC(=O)O)C(=O)N[C@@H](C)C(=O)N[C@@H](CO)C(=O)N[C@@H](CCC(=O)O)C(=O)N[C@@H](CCC(=O)O)C(=O)N[C@@H](CCC(=O)O)C(=O)N[C@@H](CC(C)C)C(=O)N[C@@H](CCC(N)=O)C(=O)N[C@@H](CCCNC(=N)N)C(=O)N[C@@H](Cc1ccc(O)cc1)C(=O)N[C@@H](Cc1ccc(O)cc1)C(=O)N[C@H](C(=O)N[C@@H](CO)C(=O)N[C@@H](CC(C)C)C(=O)N[C@@H](CCCNC(=N)N)C(=O)N[C@@H](Cc1c[nH]cn1)C(=O)N[C@@H](Cc1ccc(O)cc1)C(=O)N[C@@H](Cc1ccc(O)cc1)C(=O)N[C@@H](CC(N)=O)C(=O)N[C@@H](Cc1c[nH]c2ccccc12)C(=O)N[C@@H](CC(C)C)C(=O)N[C@H](C(=O)N[C@@H](CCCNC(=N)N)C(=O)N[C@@H](CCC(N)=O)C(=O)N[C@@H](CCCNC(=N)N)C(=O)N[C@@H](Cc1ccc(O)cc1)C(N)=O)[C@@H](C)O)C(C)C [Compound 79, N{alpha-4}-(3-methylbutanoyl)-N{epsilon-7}-[2-(2-{2-[2-(2-{2-[(4S)-4-carboxy-4-(17-carboxyheptadecanamido)butanamido]ethoxy}ethoxy)acetamido]ethoxy}ethoxy)acetamido]-[4A,7K,9E,11E,14E,18Q,22V,28Y,30W,31L]hPYY (4-36)]	75 % vehicle	8.34	
CC(C)CC(=O)N[C@@H](C)C(=O)N1CCC[C@H]1C(=O)N[C@@H](CCC(=O)O)C(=O)N[C@@H](CCCCNC(=O)COCCOCCNC(=O)COCCOCCNC(=O)CC[C@H](NC(=O)CCCCCCCCCCCCCCCCC(=O)O)C(=O)O)C(=O)N1CCC[C@H]1C(=O)N[C@@H](CCC(=O)O)C(=O)N[C@@H](CCC(=O)O)C(=O)N[C@@H](CC(=O)O)C(=O)N[C@@H](C)C(=O)N[C@@H](CO)C(=O)N1CCC[C@H]1C(=O)N[C@@H](CCC(=O)O)C(=O)N[C@@H](CCC(=O)O)C(=O)N[C@@H](CC(C)C)C(=O)N[C@@H](CCC(N)=O)C(=O)N[C@@H](CCCNC(=N)N)C(=O)N[C@@H](Cc1ccc(O)cc1)C(=O)N[C@@H](CCC(=O)O)C(=O)N[C@H](C(=O)N[C@@H](CO)C(=O)N[C@@H](CC(C)C)C(=O)N[C@@H](CCCNC(=N)N)C(=O)N[C@@H](Cc1c[nH]cn1)C(=O)N[C@@H](Cc1ccc(O)cc1)C(=O)N[C@@H](Cc1ccc(O)cc1)C(=O)N[C@@H](CC(N)=O)C(=O)N[C@@H](Cc1c[nH]c2ccccc12)C(=O)N[C@@H](CC(C)C)C(=O)N[C@H](C(=O)N[C@@H](CCCNC(=N)N)C(=O)N[C@@H](CCC(N)=O)C(=O)N[C@@H](CCCNC(=N)N)C(=O)N[C@@H](Cc1ccc(O)cc1)C(N)=O)[C@@H](C)O)C(C)C [Compound 90, N{alpha-4}-(3-methylbutanoyl)-N{epsilon-7}-[2-(2-{2-[2-(2-{2-[(4S)-4-carboxy-4-(17-carboxyheptadecanamido)butanamido]ethoxy}ethoxy)acetamido]ethoxy}ethoxy)acetamido]-[4A,7K,9E,18Q,21E,22V,28Y,30W,31L]hPYY (4-36)]	70 % vehicle		8.80
CC(C)CC(=O)N[C@@H](C)C(=O)N1CCC[C@H]1C(=O)N[C@@H](CCC(=O)O)C(=O)N[C@@H](CCCCNC(=O)COCCOCCNC(=O)COCCOCCNC(=O)CC[C@H](NC(=O)CCCCCCCCCCCCCCCCC(=O)O)C(=O)O)C(=O)N1CCC[C@H]1C(=O)N[C@@H](CCC(=O)O)C(=O)N[C@@H](CCC(=O)O)C(=O)N[C@@H](CC(=O)O)C(=O)N[C@@H](C)C(=O)N[C@H](C(=O)N1CCC[C@H]1C(=O)N[C@@H](CCC(=O)O)C(=O)N[C@@H](CCC(=O)O)C(=O)N[C@@H](CC(C)C)C(=O)N[C@@H](CCC(N)=O)C(=O)N[C@@H](CCCNC(=N)N)C(=O)N[C@@H](Cc1ccc(O)cc1)C(=O)N[C@@H](Cc1ccc(O)cc1)C(=O)N[C@H](C(=O)N[C@@H](CCC(=O)O)C(=O)N[C@@H](CC(C)C)C(=O)N[C@@H](CCCNC(=N)N)C(=O)N[C@@H](Cc1c[nH]cn1)C(=O)N[C@@H](Cc1ccc(O)cc1)C(=O)N[C@@H](Cc1ccc(O)cc1)C(=O)N[C@@H](CC(N)=O)C(=O)N[C@@H](Cc1c[nH]c2ccccc12)C(=O)N[C@@H](CC(C)C)C(=O)N[C@H](C(=O)N[C@@H](CCCNC(=N)N)C(=O)N[C@@H](CCC(N)=O)C(=O)N[C@@H](CCCNC(=N)N)C(=O)N[C@@H](Cc1ccc(O)cc1)C(N)=O)[C@@H](C)O)C(C)C)[C@@H](C)O [Compound 101, N{alpha-4}-(3-methylbutanoyl)-N{epsilon-7}-[2-(2-{2-[2-(2-{2-[(4S)-4-carboxy-4-(17-carboxyheptadecanamido)butanamido]ethoxy}ethoxy)acetamido]ethoxy}ethoxy)acetamido]-[4A,7K,9E,13T,18Q,22V,23E,28Y,30W,31L]hPYY (4-36)]	63 % vehicle		8.48
CC(C)CC(=O)N[C@@H](C)C(=O)N1CCC[C@H]1C(=O)N[C@@H](C)C(=O)N[C@@H](CCCCNC(=O)COCCOCCNC(=O)COCCOCCNC(=O)CC[C@H](NC(=O)CCCCCCCCCCCCCCCCC(=O)O)C(=O)O)C(=O)N1CCC[C@H]1C(=O)N[C@@H](CCC(=O)O)C(=O)N[C@@H](CCC(=O)O)C(=O)N[C@@H](CC(=O)O)C(=O)N[C@@H](C)C(=O)N[C@@H](CO)C(=O)N[C@@H](CCC(=O)O)C(=O)N[C@@H](CCC(=O)O)C(=O)N[C@@H](CCC(=O)O)C(=O)N[C@@H](CC(C)C)C(=O)N[C@@H](CCC(N)=O)C(=O)N[C@@H](CCCNC(=N)N)C(=O)N[C@@H](Cc1ccc(O)cc1)C(=O)N[C@@H](Cc1ccc(O)cc1)C(=O)N[C@H](C(=O)N[C@@H](CO)C(=O)N[C@@H](CC(C)C)C(=O)N[C@@H](CCCNC(=N)N)C(=O)N[C@@H](Cc1c[nH]cn1)C(=O)N[C@@H](Cc1ccc(O)cc1)C(=O)N[C@@H](Cc1ccc(O)cc1)C(=O)N[C@@H](CC(N)=O)C(=O)N[C@@H](Cc1c[nH]c2ccccc12)C(=O)N[C@@H](CC(C)C)C(=O)N[C@H](C(=O)N[C@@H](CCCNC(=N)N)C(=O)N[C@@H](CCC(N)=O)C(=O)N[C@@H](CCCNC(=N)N)C(=O)N[C@@H](Cc1ccc(O)cc1)C(N)=O)[C@@H](C)O)C(C)C [Compound 103, N{alpha-4}-(3-methylbutanoyl)-N{epsilon-7}-[2-(2-{2-[2-(2-{2-[(4S)-4-carboxy-4-(17-carboxyheptadecanamido)butanamido]ethoxy}ethoxy)acetamido]ethoxy}ethoxy)acetamido]-[4A,6A,7K,9E,14E,18Q,22V,28Y,30W,31L]hPYY (4-36)]	67 % vehicle		9.02
CC(C)CC(=O)N[C@@H](C)C(=O)N1CCC[C@H]1C(=O)N[C@@H](CCC(=O)O)C(=O)N[C@@H](CCCCNC(=O)COCCOCCNC(=O)COCCOCCNC(=O)CC[C@H](NC(=O)CCCCCCCCCCCCCCCCC(=O)O)C(=O)O)C(=O)N1CCC[C@H]1C(=O)N[C@@H](CCC(=O)O)C(=O)N[C@@H](CCC(=O)O)C(=O)N[C@@H](CC(=O)O)C(=O)N[C@@H](C)C(=O)N[C@@H](CO)C(=O)N1CCC[C@H]1C(=O)N[C@@H](CCC(=O)O)C(=O)N[C@@H](CCC(=O)O)C(=O)N[C@@H](CC(C)C)C(=O)N[C@@H](CCC(N)=O)C(=O)N[C@@H](CCCNC(=N)N)C(=O)N[C@@H](Cc1ccc(O)cc1)C(=O)N[C@@H](Cc1ccc(O)cc1)C(=O)N[C@H](C(=O)N[C@@H](CCC(=O)O)C(=O)N[C@@H](CC(C)C)C(=O)N[C@@H](CCCNC(=N)N)C(=O)N[C@@H](Cc1c[nH]cn1)C(=O)N[C@@H](Cc1ccc(O)cc1)C(=O)N[C@@H](Cc1ccc(O)cc1)C(=O)N[C@@H](CC(N)=O)C(=O)N[C@@H](Cc1c[nH]c2ccccc12)C(=O)N[C@@H](CC(C)C)C(=O)N[C@H](C(=O)N[C@@H](CCCNC(=N)N)C(=O)N[C@@H](CCC(N)=O)C(=O)N[C@@H](CCCNC(=N)N)C(=O)N[C@@H](Cc1ccc(O)cc1)C(N)=O)[C@@H](C)O)C(C)C [Compound 108, N{alpha-4}-(3-methylbutanoyl)-N{epsilon-7}-[2-(2-{2-[2-(2-{2-[(4S)-4-carboxy-4-(17-carboxyheptadecanamido)butanamido]ethoxy}ethoxy)acetamido]ethoxy}ethoxy)acetamido]-[4A,7K,9E,18Q,22V,23E,28Y,30W,31L]hPYY (4-36)]	47 % vehicle		9.00
